# From US11931429B2, “Chemiluminescent probes for diagnostics and in vivo imaging” (RAMOT AT TEL-AVIV UNIVERSITY LTD., priority 2016, dated 2024)
# Entries after “also recorded” stand apart in the source; their conditions may differ.
# What was measured:
# [1] = Chemiluminescence detection of glutathione by Probe 12; format: biochemical
# Description: (§1) FIGS. 15A-15B show (15A) total light emitted from Probe 10 (100 μM), Probe 11 (10 μM) and Probe 12 (10 μM) in the presence of hydrogen peroxide (1 mM), alkaline phosphatase (AP) (1.5 EU/ml) or glutathione (1 mM). Measurements were conducted in PBS (100 mM), pH 7.4, with 10% DMSO at RT; and (15B) total light emitted from Probe 10 (500 μM), Probe 11 (500 μM) and Probe 12 (10 μM) in PBS (100 mM), pH 7.4 with 10% DMSO over a period of 1 h, with various concentration of the corresponding stimulus. A detection limit (blank control+3 SD) was determined for each probe.
# The activation of our chemiluminescence probes is based on removal of a protecting group from the phenolic moiety. Therefore, different phenol-protecting groups could be incorporated as triggering substrates for various analytes/enzymes (Redy-Keisar et al., 2014). […] Probe 10 was equipped with boronic-ester as a substrate for hydrogen peroxide, Probe 11 with phosphate group as a substrate for alkaline-phosphatase and Probe 12 with dinitro-benzene-sulfonyl group as a substrate for GSH (FIG. 14). The probes were prepared with an acrylic acid or methyl acrylate substituent at the ortho position of the phenolic oxygen. […]
# To evaluate the sensitively and selectivity of Probes 10, 11 and 12 to detect their corresponded analyte/enzyme, we determined the probes' limit of detection (LOD). […]
# Aqueous solubility = format: physicochemical
# HEK293-LacZ stable cells = experiment: Chemiluminescence microscopy imaging of β-galactosidase activity in HEK293-LacZ cells; format: cell-based; conditions: 5 μM, 20 min incubation, 60× objective, seconds exposure (Study 2)
# Description: (§2) Images were obtained following 20 min incubation with cell culture medium containing Probe 3 (5 μM).
# (§3) Images were obtained following 20 min incubation with cell culture medium containing Probe 7 (5 μM). Images were taken by the LV200 Olympus-microscope using 60× objective and 40s exposure time.
# (§4) Chemiluminescence microscopy imaging of β-galactosidase activity. Chemiluminescence images were acquired using Olympus LV200 inverted microscope fitted with an EMCCD camera (Hamamatsu C9100-13). HEK293 LacZ stable cells (amsbio SC003) and HEK293-WT cells (control) were grown on 35 mm glass bottom petri dishes at 37° C. for 24 h. Cell culture medium was changed to Molecular Probes® Live Cell Imaging Solution containing 5 μM of Probe 3. Cells were incubated for another 20 minutes at 37° C. Thereafter, images were recorded with 20 […] exposure time.
# To improve the image quality, the HEK293-LacZ cells were fixed by using 4% formaldehyde and permeabilized with 0.1% Triton X-100. The cells were then incubated with Probe 3 and imaged by the microscope using a 60× objective (NA 1.42).
# Chemiluminescence images were acquired using Olympus LV200 inverted microscope fitted with an EMCCD camera (Hamamatsu C9100-13). […] Thereafter, images were recorded with 40 seconds exposure time.
# HEK293-WT cells = experiment: Chemiluminescence microscopy imaging, HEK293-WT control cells; format: cell-based; conditions: 5 μM, 20 min incubation (Study 2)
# Description: as §2, §3, §4
# Chemiluminescence images were acquired using Olympus LV200 inverted microscope fitted with an EMCCD camera (Hamamatsu C9100-13). HEK293 LacZ stable cells (amsbio SC003) and HEK293-WT cells (control) were grown on 35 mm glass bottom petri dishes at 37° C. for 24 h. Cell culture medium was changed to Molecular Probes® Live Cell Imaging Solution containing 5 μM of probe 4. Cells were incubated for another 20 minutes at 37° C. Thereafter, images were recorded with 40 seconds exposure time.
# [2] = Light-induced decomposition under normal room illumination, monitored by RP-HPLC; format: physicochemical; conditions: PBS pH 7.4, normal room illumination
# Description: Probes (300 μM) were incubated in PBS (100 mM), pH 7.4, at ambient temperature.
# Light-induced decomposition of dioxetane-dye conjugates. While working on the synthesis of the dioxetane-fluorophore conjugates, we encountered an unexpected phenomenon. Although Probe 1 seemed to be photostable, Probes 2 and 3 appeared to decompose under normal room illumination conditions. We measured the photostability of the probes in aqueous solution (PBS, pH 7.4) under normal room illumination. The light-induced decomposition was monitored over several hours by a RP-HPLC assay (FIG. 2).
# β-galactosidase [3] = tested on: β-galactosidase
# Description: Spectra were recorded in PBS (100 mM), pH 7.4, in the presence of 1.5 units/mL β-galactosidase (continuous lines). Dotted line is the fluorescence emission spectrum (DCL—direct chemiluminescence).
# Fluorescence and chemiluminescence were recorded on Molecular Devices Spectramax i3x.
# Chemiluminescence parameters measured for Probes 1, 2 and 3 and their ability to detect and image β-galactosidase. Next, we measured the light emission of the probes, as a function of time, in the presence and in the absence of β-galactosidase.
# The chemiluminescence quantum yield (ϕCL) of probes 2 and 3 was calculated using that of Probe 1 as a known standard (Edwards et al., 1994).
# β-galactosidase [4] = conditions: Probe 1, known standard (Edwards et al., 1994); cited from earlier work
# [5] = tested on: alkaline phosphatase (AP); experiment: Chemiluminescence detection of alkaline phosphatase by Probe 11; format: biochemical
# Description: (§5) On the left—a comparison between light emission observed by Probe 10 (1 mM; left vial) to that observed by Luminol (1 mM; right vial) upon incubation with hydrogen peroxide under aqueous conditions at pH 10. Probe 12 is a chemiluminescence for detection of GSH.
# FIGS. 15A-15B show (15A) total light emitted from Probe 10 (100 μM), Probe 11 (10 μM) and Probe 12 (10 μM) in the presence of hydrogen peroxide (1 mM), alkaline phosphatase (AP) (1.5 EU/ml) or glutathione (1 mM). […]; and (15B) total light emitted from Probe 10 (500 μM), Probe 11 (500 μM) and Probe 12 (10 μM) in PBS (100 mM), pH 7.4 with 10% DMSO over a period of 1 h, with various concentration of the corresponding stimulus. A detection limit (blank control+3 SD) was determined for each probe.
# (§6) The activation of our chemiluminescence probes is based on removal of a protecting group from the phenolic moiety. Therefore, different phenol-protecting groups could be incorporated as triggering substrates for various analytes/enzymes (Redy-Keisar et al., 2014). […] Probe 10 was equipped with boronic-ester as a substrate for hydrogen peroxide, Probe 11 with phosphate group as a substrate for alkaline-phosphatase and Probe 12 with dinitro-benzene-sulfonyl group as a substrate for GSH (FIG. 14). The probes were prepared with an acrylic acid or methyl acrylate substituent at the ortho position of the phenolic oxygen. […] As described above, the probes decompose upon their activation to release the excited state of the coresponed benzoate. The acrylate substituent efficiently increases the emissive nature of the released benzoate to produce strong light emission, clearly visible to the naked eye.
# (§7) To evaluate the sensitively and selectivity of Probes 10, 11 and 12 to detect their corresponded analyte/enzyme, we determined the probes' limit of detection (LOD). […] Probe 10 could detect hydrogen peroxide with an LOD value of 30 nM, Probe 11 could detect alkaline-phosphatase with an LOD value of 3.9 μU/ml and Probe 12 could detect GSH with an LOD value of 1.7 μM.
# [6] = Chemiluminescence detection of hydrogen peroxide by Probe 10; format: biochemical
# Description: as §5, §1, §6, §7
# [7] = Chemiluminescence of adamantylidene-dioxetane luminophores 5b-9b in PBS 7.4; format: physicochemical
# [8] = reference compound, known value (Trofimov et al., 1996; Edwards et al., 1994); cited from earlier work
# [9] = 500 μM probe, PBS (100 mM) pH 7.4, 10% DMSO, 1 h, blank control+3 SD
compound,measurement,setting,value
COC(=O)/C=C/c1ccc(C2(OC)OOC23C2CC4CC(C2)CC3C4)cc1OCc1ccc(NS(=O)(=O)c2ccc([N+](=O)[O-])cc2[N+](=O)[O-])cc1 (stereo not shown) [Probe 12],LOD for GSH,"[1]; 10 μM probe, PBS (100 mM) pH 7.4, 10% DMSO, 1 h, blank control+3 SD",1.7 µM
same,selectivity towards analyte of choice,"[1]; vs hydrogen peroxide and alkaline phosphatase, physiological conditions",very good selectivity
same,aqueous solubility,Aqueous solubility,relatively moderate aqueous solubility
same,applicable concentration range,Aqueous solubility; aqueous,1 to 10 µM
COC(=O)/C=C/c1ccc(C2(OC)OOC23C2CC4CC(C2)CC3C4)c(Cl)c1OCc1ccc(O[C@@H]2OC(CO)[C@H](O)C(O)C2O)cc1 (stereo partly shown) [Probe 7],chemiluminescence images of HEK293-LacZ cells,HEK293-LacZ stable cells,high quality chemiluminescence images; also recorded: excellent chemiluminescence cell images
same,chemiluminescence signal of HEK293-WT cells,HEK293-WT cells,No chemiluminescence signal at all was observed
"COC1(c2cccc(O[C@@H]3OC(CO)[C@H](O)[C@H](O)C3O)c2Cl)OOC12C1CC3CC(C1)CC2C3 (stereo partly shown) [Probe 1, reference compound]",photostability under normal room illumination,[2],photostable; also recorded: unaffected by light
same,λmax [nm] (chemiluminescence emission),"β-galactosidase [3]; 1 μM, PBS (100 mM) pH 7.4, 1.5 units/mL β-galactosidase",470 nm
same,Relative ΦCL,β-galactosidase [3]; relative to Probe 1,1
same,ΦCL (chemiluminescence quantum yield),β-galactosidase [4],3.3 × 10^−5
COC1(c2ccc(/C=C/C(=O)O)c(OP(=O)(O)O)c2)OOC12C1CC3CC(C1)CC2C3 (stereo not shown) [Probe 11],LOD for alkaline-phosphatase,[5]; [9],3.9 μU/ml
same,luminescence upon reaction with enzyme,"[5]; 1 mM, pH 10",bright green luminescence
same,selectivity towards analyte of choice,"[5]; vs hydrogen peroxide and glutathione, physiological conditions",very good selectivity
same,aqueous solubility,Aqueous solubility,increased significantly
COC1(c2ccc(/C=C/C(=O)O)c(B3OC(C)(C)C(C)(C)O3)c2)OOC12C1CC3CC(C1)CC2C3 (stereo not shown) [Probe 10],LOD for hydrogen peroxide,[6]; [9],30 nM
same,luminescence upon reaction with analyte,"[6]; 1 mM, pH 10",bright green luminescence
same,selectivity towards analyte of choice,"[6]; vs alkaline phosphatase and glutathione, physiological conditions",very good selectivity
same,aqueous solubility,Aqueous solubility,increased significantly
"COC1(c2cccc(O)c2Cl)OOC12C1CC3CC(C1)CC2C3 (stereo not shown) [Phenol 5b, reference compound]",λ maxCL [nm],[7]; PBS 7.4,470 nm
same,Relative CL emission,[7]; relative to 5b,1
same,chemiluminescence emission signal upon deprotonation,[7]; water / PBS 7.4,extremely weak
same,ΦCL(H20) %,[8],3.2×10^−3%
